Values of other authors as cited in patent US20240285562A1, “USE OF (S)-3-AMINO-4-(DIFLUOROMETHYLENYL) CYCLOPENT-1-ENE-1-CARBOXYLIC ACID IN THE TREATMENT OF MULTIPLE SCLEROSIS” (Ovid Therapeutics Inc., priority 2023, published 2024).
Blank lines part the entries; values can stand above or below the molecule they belong to.

Legend:
[1] = target: aspartate aminotransferase (Asp-AT)
[2] = target: alanine amidotransferase (Ala-AT)
OAT = target: T1, OAT (Homo sapiens, UniProt P04181)
T1 sequence (P04181 36-439 limits assumed): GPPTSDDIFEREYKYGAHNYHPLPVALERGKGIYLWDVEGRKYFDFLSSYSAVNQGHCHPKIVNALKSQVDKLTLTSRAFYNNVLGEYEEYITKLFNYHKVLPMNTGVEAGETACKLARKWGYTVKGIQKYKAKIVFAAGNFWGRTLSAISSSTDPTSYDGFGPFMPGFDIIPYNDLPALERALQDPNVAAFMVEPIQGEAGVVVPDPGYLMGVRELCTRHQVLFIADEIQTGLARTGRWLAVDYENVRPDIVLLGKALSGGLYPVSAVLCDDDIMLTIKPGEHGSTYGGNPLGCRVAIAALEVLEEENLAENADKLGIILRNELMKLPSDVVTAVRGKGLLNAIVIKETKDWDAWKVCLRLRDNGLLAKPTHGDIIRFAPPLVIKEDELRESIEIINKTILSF

[3] = test system: autoimmune response in EAE; conditions: oral or parenteral administration, murine EAE

IC50 ([1]; reversible inhibition): > 4000 µM | IC50 ([2]; reversible inhibition): > 4000 µM | times more efficient an inactivator of OAT than CPP-115 (OAT; ratio of kinact/KI versus CPP-115): 9.0 times
SMILES: N[C@H]1C=C(C(=O)O)CC1=C(F)F [(S)-3-amino-4-(difluoromethylenyl)cyclopent-1-ene-1-carboxylic acid]

SMILES: N[C@H]1C[C@@H](C(=O)O)CC1=C(F)F [CPP-115, (1S,3S)-3-amino+difluoromethylenyl-1-cyclopentanoic acid, reference compound]
inactivation or inhibition of off-target enzyme [1]: not to inactivate or inhibit | inactivation or inhibition of off-target enzyme [2]: not to inactivate or inhibit | Ki (OAT; OAT inactivation): 116 µM

SMILES: NCCCC(=O)O [GABA, gamma-aminobutyric acid]
reduction of the damaging autoimmune response [3]: ineffective
